“Also recorded” adds a separate entry of the source.
Key:
[1] = tested on: Human taxol-resistant promyelocytic leukaemia cells (HL-60); experiment: HL-60 taxol-resistant promyelocytic leukaemia tumour in SCID mice (2.7); assay type: in vivo, human cells in mice; settings: SEQ ID NO:1 10 mg/kg i.v. every other day
Procedure: BxPC-3 is a gemcitabine resistant call line. […] Gemcitabine was administered intravenously every three days at a dose of 100 mg/kg. Antitumour activities were estimated by the inhibition of tumour volume, which was measured with caliper. Each point represents mean tumour volume calculated from 10 animals per experimental group. […] Hela S3 is a hydroxyurea resistant cell line. […] Hydroxyurea was administered intraperitoneally every day at a dose of 250 mg/kg for 10 days. Cisplatin was administered intravenously once a week for three weeks at a dose of 4 mg/kg. Antitumour activities were estimated by the inhibition of tumour volume, which was measured with caliper. Each point represents mean tumour volume calculated from 10 animals per experimental group. […] Cisplatin was administered intravenously once a week for three weeks at a dose of 4 mg/kg. Taxol was administered intravenously once a week for three weeks at a dose of 10 mg/kg. Antitumour activities were estimated by the inhibition of tumour volume, which was measured with caliper. Each point represents mean tumour volume calculated from 10 animals per experimental group. […] Taxol was administered i.p. once a week at a dose of 10 mg/kg. Antitumour activities were estimated by the inhibition of tumour volume (FIG. 12A), which was measured with calipers. Each point represents mean tumour volume calculated from 10 animals per experimental group. Animals were sacrificed and tumour weights taken at the end of the study (FIG. 12C). […] Cisplatin was administered intravenously once a week for four weeks at a dose of 4 mg/kg. Taxol was administered intravenously once a week for four weeks at a dose of 20 mg/kg. Antitumour activities were estimated by the inhibition of tumour volume, which was measured with caliper. Each point represents mean tumour volume calculated from 9-10 animals per experimental group. […] Cisplatin was administered intravenously once a week for four weeks at a dose of 4 mg/kg. Antitumour activities were estimated by the inhibition of tumour volume, which was measured with caliper. Each point represents mean tumour volume calculated from 10 animals per experimental group. At the end of the study the animals were sacrificed and tumours weighed. […] Taxol was administered i.p. once a week at a dose of 10 mg/kg. Anti-tumour activity was estimated by the inhibition of tumour volume, which was measured with caliper. Each point represents mean tumour volume calculated from 10 animals per experimental group. […] Antitumour activities were estimated by the inhibition of tumour volume, which was measured with caliper. Each point represents mean tumour volume calculated from 10 animals per experimental group. Tumour weights were measured after animals were sacrificed at the end of the treatment. […]

[2] = tested on: C8161 human metastatic melanoma cells; experiment: Experimental metastasis assay, C8161 cells, treatment post tumour cell injection; assay type: in vivo, human cells in mice; settings: C8161 cells i.v. into SCID mice; treatment initiated after 2 days; lungs 5-7 weeks later
Procedure: C8161 human melanoma cells were seeded into 100 mm tissue culture dishes at a density of 2×10^6 and incubated overnight at 37° C. in α-MEM medium supplemented with 10% FBS. The cells were trypsinized, collected by centrifugation and aliquots were removed from the suspension to determine the cell viability using trypan blue exclusion test. […] Treatment was initiated after 2 days. Estimates of the number of lung nodules were made 5-7 weeks later, after excised lungs from individual mice were stained with picric acid dye solution (75% picric acid, 20% formaldehyde, 5% glacial acetic acid).
Murine R3 fibrosarcoma and human C8161 melanoma cells injected into the tail vein of mice form observable lung nodules 2 weeks post-injection. […] To more accurately reflect the clinical situation, mice were treated with SEQ ID NO:1 post tumour cell injection. C8161 human metastatic melanoma cells were seeded into 100 mm tissue culture dishes at a density of 2×10^6 and incubated overnight at 37° C. in α-MEM medium supplemented with 10% FBS. The cells were trypsinized, collected by centrifugation and aliquots were removed from the suspension to determine the cell viability using trypan blue exclusion test. Approximately 1×10^5 cells suspended in 0.1 ml of PBS were injected into the tail veins of 6-8 week old female SCID mice. Treatment was initiated after 2 days. Estimates of the number of lung nodules were made 5-7 weeks later, after excised lungs from individual mice were stained with picric acid dye solution (75% picric acid, 20% formaldehyde, 5% glacial acetic acid). The results are shown in FIG. 31, bars represent the mean number of nodules per mouse with standard error.

[3] = Phase I study of SEQ ID NO:1 by continuous intravenous infusion in patients with advanced cancer: toxicity and response
Procedure: Pharmacokinetic parameters were assessed. SEQ ID NO:1 was administered using a portable infusion pump in cycles of 21 days CVI followed by one week of rest. […] Doses were doubled in cohorts of 1-3 patients until the appearance of Gr 1 toxicity, with subsequent escalation of 20-30% in cohorts of 3 patients. DLT was defined as Gr 4 neutropenia lasting 3 days or with fever; Gr 4 thrombocytopenia (T) or Gr 3 T with Gr 1 bleeding; or Gr 3 non-hematologic toxicity.

[4] = tested on: HT-29 human colon cancer cells; experiment: HT-29 colon tumour xenograft in nude mice, combination with CPT-11 (1.2); assay type: in vivo, human cells in mice; settings: SEQ ID NO:1 10 mg/kg i.v. every other day, CPT-11 20 mg/kg i.p. days 7-12
Source text: All treatments were stopped at day 22. […] All treatments were stopped at day 32. […] All treatments were stopped at day 36.

[5] = Cycle 1, 18.5 mg/m^2/day 21 day CVI, 2 patients
[6] = Cycle 1, 74 mg/m^2/day 21 day CVI, 1 patient
[7] = Cycle 1, 148 mg/m^2/day 21 day CVI, 6 patients
[8] = Cycle 1, 185 mg/m^2/day 21 day CVI, 9 patients
[9] = Cycle 1, 222 mg/m^2/day 21 day CVI, 7 patients

In the case of “5′-GGCTAAATCGCTCCACCAAG-3′ (all phosphorothioate, sugars by position and methylation of C not given here) [SEQ ID NO: 1, fully phosphorothioated antisense oligonucleotide that hybridizes to the coding region of R2 mRNA]”, the “Tumour weight as % of saline control” value ([1]; HL-60 (leukemia), Taxol resistant, SCID, Taxol 10 mg/kg i.p. weekly) was 38%, the “Antitumour effect (FIG. 15)” value ([1]; HL-60 taxol-resistant, SCID mice, taxol 10 mg/kg i.p. weekly) was “significant reduction of tumour weight compared to saline control” and the “Lung nodule formation / anti-metastatic activity (FIG. 31)” value [2] was “only one of the 9 mice had lung nodules”. For the same substance, the “DLT: Gr 3 fatigue” value ([3]; 148 mg/m^2/day) was 1/6, the “Tolerability at the recommended phase II dose” value ([3]; 185 mg/m^2/day) was “well tolerated by 11 patients” and the “DLT: Gr 4 transaminase elevation” value ([3]; 222 mg/m^2/day) was 2/6. For the same substance, the “recommended phase II dose” value ([3]; 21 days CVI followed by one week of rest) was 185 mg/m^2/day, the “maximum tolerated dose (MTD)” value ([3]; 21 days CVI followed by one week of rest, patients with advanced malignancies) was 222 mg/m^2/day and the “No. of Patients with Grade of Toxicity: Anorexia Grade 1” value (shortened to “No. of Patients … Anorexia Grade 1”) [3, 5] was 1. The “No. of Patients with Grade of Toxicity: Fatigue Grade 1” value (“No. of Patients … Fatigue Grade 1” for short) [3, 5] was 1, the “No. of Patients … Anorexia Grade 1” value [3, 6] was 1 and the “No. of Patients … Fatigue Grade 1” value [3, 6] was 1. For the same substance, the “No. of Patients with Grade of Toxicity: Nausea Grade 1” value (“No. of Patients … Nausea Grade 1” below) [3, 6] was 1, the “No. of Patients with DLT (Table 10)” value [3, 7] was 1 and the “No. of Patients … Anorexia Grade 1” value [3, 7] was 1. For the same substance, the “No. of Patients with Grade of Toxicity: Anorexia Grade 2” value [3, 7] was 1, the “No. of Patients … Fatigue Grade 1” value [3, 7] was 1 and the “No. of Patients with Grade of Toxicity: Fatigue Grade 2” value (“No. of Patients … Fatigue Grade 2” below) [3, 7] was 1. The “No. of Patients with Grade of Toxicity: Fatigue Grade 3 (*DLT)” value [3, 7] was 1*, the “No. of Patients with Grade of Toxicity: Nausea Grade 2” value [3, 7] was 1 and the “No. of Patients with Grade of Toxicity: Neutropenia Grade 3” value [3, 7] was 1. For the same substance, the “No. of Patients … Anorexia Grade 1” value [3, 8] was 2, the “No. of Patients … Fatigue Grade 1” value [3, 8] was 3 and the “No. of Patients … Fatigue Grade 2” value [3, 8] was 2. For the same substance, the “No. of Patients … Nausea Grade 1” value [3, 8] was 3, the “No. of Patients with DLT (Table 11)” value [3, 9] was 2 and the “No. of Patients with Grade of Toxicity: Anemia Grade 2” value [3, 9] was 2. The “No. of Patients with Grade of Toxicity: Anorexia Grade 2” value [3, 9] was 1, the “No. of Patients with Grade of Toxicity: Bilirubin Grade 2” value [3, 9] was 1 and the “No. of Patients with Grade of Toxicity: Bilirubin Grade 4 (*DLT)” value [3, 9] was 1*. For the same substance, the “No. of Patients … Fatigue Grade 1” value [3, 9] was 3, the “No. of Patients … Fatigue Grade 2” value [3, 9] was 1 and the “No. of Patients … Nausea Grade 1” value [3, 9] was 3. The “No. of Patients with Grade of Toxicity: Neutropenia Grade 2” value [3, 9] was 1, the “No. of Patients with Grade of Toxicity: Rash Grade 2” value [3, 9] was 1 and the “No. of Patients with Grade of Toxicity: Transaminases Grade 2” value [3, 9] was 1. The “No. of Patients with Grade of Toxicity: Transaminases Grade 4 (*DLT)” value [3, 9] was 2*, the Hematologic toxicity ([3]; doses 18.5 to 222 mg/m^2/day) was “mild” and the “Number of DLTs observed” value ([3]; doses 18.5 to 222 mg/m^2/day) was “Three DLTs were observed in 25 patients assessable for toxicity”. The “Other serious toxicities: Gr 3 non-neutropenic infection” value ([3]; doses 18.5 to 222 mg/m^2/day) was 2 patients, the “Other serious toxicities: bowel obstruction” value ([3]; doses 18.5 to 222 mg/m^2/day) was 1 patient and the “common (Gr 1-2) non-hematologic toxicities: anorexia” value ([3]; doses 18.5 to 222 mg/m^2/day) was 42%. For the same substance, the “common (Gr 1-2) non-hematologic toxicities: fatigue” value ([3]; doses 18.5 to 222 mg/m^2/day) was 69%, the “common (Gr 1-2) non-hematologic toxicities: nausea” value ([3]; doses 18.5 to 222 mg/m^2/day) was 38% and the “Tumour response: stable disease” value ([3]; patients with advanced cancer, after 2 cycles) was “Four patients had stable disease (SD) after 2 cycles”. The “Tumour weight as % of saline control” value ([4]; HT-29 (colon), CD-1) was 19% and the “Antitumour effect (tumour weight, FIG. 2)” value ([4]; HT-29, CD-1 nude mice) was “significant delay of tumour growth compared to saline control; also recorded: superior to the inhibitory effects observed with CPT-11 alone”.
